Target: T1, HibA-CM (isolated HibA N-terminal domain, CBS module) (Pyrococcus abyssi, UniProt Q9UYR4)
T1 construct: gene PAB0961; N-terminal CBS module (residues 1-269 given as the module), made by stop codon at position 272; N-terminal His6 tag, expressed in E. coli Rosetta, Talon and Superdex 200
Assay: isothermal titration calorimetry
Assay type: binding

T1 sequence (Q9UYR4 entry or part of it): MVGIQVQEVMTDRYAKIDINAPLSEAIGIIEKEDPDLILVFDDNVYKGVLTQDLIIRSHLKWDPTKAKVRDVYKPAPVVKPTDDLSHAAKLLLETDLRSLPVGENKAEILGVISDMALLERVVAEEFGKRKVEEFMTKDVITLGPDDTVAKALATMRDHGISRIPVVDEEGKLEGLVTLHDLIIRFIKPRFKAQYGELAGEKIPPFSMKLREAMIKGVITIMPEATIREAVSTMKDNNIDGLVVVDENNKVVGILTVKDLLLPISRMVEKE

Row | Compound | Kd
1 | Nc1ncnc2c1ncn2[C@@H]1O[C@H](COP(=O)(O)OP(=O)(O)OP(=O)(O)O)[C@@H](O)[C@H]1O [ATP] | 113 ± 21 µM
2 | Nc1ncnc2c1ncn2[C@@H]1O[C@H](COP(=O)(O)OP(=O)(O)O)[C@@H](O)[C@H]1O [ADP] | 65 ± 1 µM
3 | Nc1ncnc2c1ncn2[C@@H]1O[C@H](COP(=O)(O)O)[C@@H](O)[C@H]1O [AMP] | 12 ± 2 µM

Reference: article PMC13324472, “A family of ribosome hibernation factors widespread in Archaea” (Nature Communications, 2026)
